# Target: T1, human renin (Homo sapiens, UniProt P00797)
# T1 construct: A human plasma pool is used as the source of both the substrate (angiotensinogen) and the enzyme (renin); from tissue; host or cells: pooled human plasma
# T1 sequence (P00797 67-406): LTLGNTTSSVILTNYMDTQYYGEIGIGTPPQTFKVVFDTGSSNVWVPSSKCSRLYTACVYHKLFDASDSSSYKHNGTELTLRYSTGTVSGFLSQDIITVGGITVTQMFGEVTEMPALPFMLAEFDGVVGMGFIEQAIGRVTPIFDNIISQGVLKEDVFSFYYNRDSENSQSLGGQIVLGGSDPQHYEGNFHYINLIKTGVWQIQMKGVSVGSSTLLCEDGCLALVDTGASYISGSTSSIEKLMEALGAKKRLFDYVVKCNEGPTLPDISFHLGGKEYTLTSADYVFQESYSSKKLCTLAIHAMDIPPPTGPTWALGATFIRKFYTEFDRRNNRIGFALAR
# Assay: plasma renin assay (inhibition of human renin; angiotensin I generated, measured by radioimmunoassay)
# Type: biochemical
# Conditions: human plasma pool, pH 6.0, 2 h incubation at 37°
# Description: The assay is performed as follows: The test compound (i.e. the inhibitor) is dissolved in dimethylsulfoxide (1 mM stock solution) and diluted with an aqueous buffer solution of 270 mM 2-(N-morpholino)ethanesulfonic acid and 1% human serum albumin (pH 5.85, also containing dimercaprol and 8-hydroxyquinoline sulfate in accordance with the instructions of the RIA kit noted below) to give an assay mixture in which the final dimethylsulfoxide content is 1% (v/v).
# A human plasma pool is used as the source of both the substrate (angiotensinogen) and the enzyme (renin). The reaction is initiated by the addition of 50 μL of human plasma pool to 50 μL of various concentrations of inhibitor in the 1% dimethylsulfoxide assay buffer. The plasma renin activity is measured by the amount of angiotensin I generated at pH 6.0 following a 2 h incubation at 37°.
# Quantitation of angiotensin I is performed by radioimmunoassay (RIA kit from New England Nuclear-Dupont, Mississauga, ON, Canada). The enzymatic activity of renin is expressed in ng of angiotensin I generated (/mL/2 h). The extent of inhibition of the reaction is determined from the amount of angiotensin I generated in reference to a control prepared without inhibitor. Nonlinear regression analysis is used to calculate the IC50 values, i.e. the molar concentration of the test compound required to cause a 50% inhibition of the enzyme activity.
row,IC50 [nM],SMILES
1,170,"CC(C)C[C@H](O)[C@H](O)[C@H](CC1CCCCC1)NC(=O)[C@@H](CC(=O)NCC(O)c1ccccn1)CC1CC1 (mixture of isomers) [Compound 22, N^4-[2(R,S)-hydroxy-2-(2-pyridinyl)ethyl]-N^1-[1(S)-(cyclohexylmethyl)-2(R),3(S)-dihydroxy-5-methylhexyl]-2(R)-(cyclopropylmethyl)butanediamide]"
2,10,"CC(C)C[C@H](O)[C@H](O)[C@H](CC1CCCCC1)NC(=O)[C@@H](CC(=O)N(CC(=O)N(C)C)CC(O)c1ccccc1)Cc1cscn1 (mixture of isomers) [Compound 44, N^4-[2-(dimethylamino)-2-oxoethyl]-N^4-[2(R,S)-hydroxy-2-phenylethyl]-N^1-[1(S)-(cyclohexylmethyl)-2(R),3(S)-dihydroxy-5-methylhexyl]-2(R)-(4-thiazolylmethyl)butanediamide]"
3,8.7,"CC(C)C[C@H](O)[C@H](O)[C@H](CC1CCCCC1)NC(=O)[C@@H](CC(=O)N(CC(C)O)CC1CCCCC1)Cc1cscn1 (single isomer, unassigned) [Compound 39, N^4-(cyclohexylmethyl)-N^4-[2(R or S)-hydroxypropyl]-N^1-[1(S)-(cyclohexylmethyl)-2(R),3(S)-dihydroxy-5-methylhexyl]-2(R)-(4-thiazolylmethyl)butanediamide]"
4,38,"CC(C)C[C@H](O)[C@H](O)[C@H](CC1CCCCC1)NC(=O)[C@@H](CC(=O)N(C)CC1(O)CCCCC1)CC1CC1 [Compound 6, N^4-[(1-hydroxycyclohexyl)methyl]-N^4-methyl-N^1-[1(S)-(cyclohexylmethyl)-2(R),3(S)-dihydroxy-5-methylhexyl]-2(R)-(cyclopropylmethyl)butanediamide]"
5,72,"CC(C)C[C@H](O)[C@H](O)[C@H](CC1CCCCC1)NC(=O)[C@@H](CC(=O)NC[C@H](O)c1ccccc1)CC1CC1 [Compound 9, N^4-(R)-(2-hydroxy-2-phenylethyl)-N^1-[1(S)-(cyclohexylmethyl)-2(R),3(S)-dihydroxy-5-methylhexyl]-2(R)-(cyclopropylmethyl)butanediamide]"
6,74,"CC(C)C[C@H](O)[C@H](O)[C@H](CC1CCCCC1)NC(=O)[C@@H](CC(=O)NCC(O)c1ccccc1)CC1CC1 (stereo partly drawn) [Compound 10, N^4-(R,S)-(2-hydroxy-2-phenylethyl)-N^1-[1(S)-(cyclohexylmethyl)-2(R),3(S)-dihydroxy-5-methylhexyl]-2(R)-(cyclopropylmethyl)butanediamide]"
7,71,"CC(C)C[C@H](O)[C@H](O)[C@H](CC1CCCCC1)NC(=O)[C@@H](CC(=O)N(Cc1ccccc1)CC(O)c1ccccc1)CC1CC1 (stereo partly drawn) [Compound 12, N^4-benzyl-N^4-(R,S)-(2-hydroxy-2-phenylethyl)-N^1-[1(S)-(cyclohexylmethyl)-2(R),3(S)-dihydroxy-5-methylhexyl]-2(R)-(cyclopropylmethyl)butanediamide]"
8,79,"CC(C)C[C@H](O)[C@H](O)[C@H](CC1CCCCC1)NC(=O)[C@@H](CC(=O)N[C@H](CO)Cc1ccccc1)CC1CC1 [Compound 14, N^4-(S)-[1-(hydroxymethyl)-2-phenylethyl]-N^1-[1(S)-(cyclohexylmethyl)-2(R),3(S)-dihydroxy-5-methylhexyl]-2(R)-(cyclopropylmethyl)butanediamide]"
9,80,"CC(C)C[C@H](O)[C@H](O)[C@H](CC1CCCCC1)NC(=O)[C@@H](CC(=O)N(Cc1ncc[nH]1)CC1(O)CCCCC1)CC1CC1 [Compound 15, N^4-[(1-hydroxycyclohexyl)methyl]-N^4-(1H-imidazol-2-ylmethyl)-N^1-[1(S)-(cyclohexylmethyl)-2(R),3(S)-dihydroxy-5-methylhexyl]-2(R)-(cyclopropylmethyl)butanediamide]"

# More lines, now with the values behind:
row,SMILES,IC50 [nM]
1,"CC(C)C[C@H](O)[C@H](O)[C@H](CC1CCCCC1)NC(=O)[C@@H](CC(=O)N(CC(=O)N(C)C)CC(O)C1CCCCC1)Cc1cscn1 (mixture of isomers) [Compound 42, N^4-[2-cyclohexyl-2(R,S)-hydroxyethyl]-N^4-[2-(dimethylamino)-2-oxoethyl]-N^1-[1(S)-(cyclohexylmethyl)-2(R),3(S)-dihydroxy-5-methylhexyl]-2(R)-(4-thiazolylmethyl)butanediamide]",16
2,"CC(C)C[C@H](O)[C@H](O)[C@H](CC1CCCCC1)NC(=O)[C@@H](CC(=O)N(CC(C)O)CC1CCCCC1)Cc1cscn1 (single isomer, unassigned) [Compound 40, N^4-(cyclohexylmethyl)-N^4-[2(S or R)-hydroxypropyl]-N^1-[1(S)-(cyclohexylmethyl)-2(R),3(S)-dihydroxy-5-methylhexyl]-2(R)-(4-thiazolylmethyl)butanediamide]",11
3,"CC(C)C[C@H](O)[C@H](O)[C@H](CC1CCCCC1)NC(=O)[C@@H](CC(=O)N(Cc1ccccc1)CC1(O)CCCCC1)CC1CC1 [Compound 1, N^4-benzyl-N^4-[(1-hydroxycyclohexyl)methyl]-N^1-[1(S)-(cyclohexylmethyl)-2(R),3(S)-dihydroxy-5-methylhexyl]-2(R)-(cyclopropylmethyl)butanediamide]",36
4,"CCC[C@H](CC(=O)N(Cc1ccccc1)CC1(O)CCCCC1)C(=O)N[C@@H](CC1CCCCC1)[C@@H](O)[C@@H](O)CC(C)C [Compound 2, N^4-benzyl-N^4-[(1-hydroxycyclohexyl)methyl]-N^1-[1(S)-(cyclohexylmethyl)-2(R),3(S)-dihydroxy-5-methylhexyl]-2(R)-propylbutanediamide]",27
5,"CC(C)C[C@H](O)[C@H](O)[C@H](CC1CCCCC1)NC(=O)[C@@H](CC(=O)N(Cc1ccc2c(c1)OCO2)CC1(O)CCCCC1)CC1CC1 [Compound 3, N^4-[(1-hydroxycyclohexyl)methyl]-N^4-[(4,5-methylenedioxyphenyl)methyl]-N^1-[1(S)-(cyclohexylmethyl)-2(R),3(S)-dihydroxy-5-methylhexyl]-2(R)-(cyclopropylmethyl)butanediamide]",21
6,"CC(C)C[C@H](O)[C@H](O)[C@H](CC1CCCCC1)NC(=O)[C@@H](CC(=O)N(Cc1ccccn1)CC1(O)CCCCC1)CC1CC1 [Compound 4, N^4-[(1-hydroxycyclohexyl)methyl]-N^4-(2-pyridinylmethyl)-N^1-[1(S)-(cyclohexylmethyl)-2(R),3(S)-dihydroxy-5-methylhexyl]-2(R)-(cyclopropylmethyl)butanediamide]",36
7,"CC(C)C[C@H](O)[C@H](O)[C@H](CC1CCCCC1)NC(=O)[C@@H](CC(=O)N(CCO)CC1(O)CCCCC1)CC1CC1 [Compound 5, N^4-[(1-hydroxycyclohexyl)methyl]-N^4-(2-hydroxyethyl)-N^1-[1(S)-(cyclohexylmethyl)-2(R),3(S)-dihydroxy-5-methylhexyl]-2(R)-(cyclopropylmethyl)butanediamide]",35
8,"CC(C)C[C@H](O)[C@H](O)[C@H](CC1CCCCC1)NC(=O)[C@@H](CC(=O)N(CCc1ccccn1)CC1(O)CCCCC1)CC1CC1 [Compound 7, N^4-[(1-hydroxycyclohexyl)methyl]-N^4-[2-(2-pyridinyl)ethyl]-N^1-[1(S)-(cyclohexylmethyl)-2(R),3(S)-dihydroxy-5-methylhexyl]-2(R)-(cyclopropylmethyl)butanediamide]",53
9,"CC(C)C[C@H](O)[C@H](O)[C@H](CC1CCCCC1)NC(=O)[C@@H](CC(=O)N(Cc1ccccn1)CC1(O)CCCCCC1)CC1CC1 [Compound 8, N^4-[(1-hydroxycycloheptyl)methyl]-N^4-(2-pyridinylmethyl)-N^1-[1(S)-(cyclohexylmethyl)-2(R),3(S)-dihydroxy-5-methylhexyl]-2(R)-(cyclopropylmethyl)butanediamide]",65
10,"CC(C)C[C@H](O)[C@H](O)[C@H](CC1CCCCC1)NC(=O)[C@@H](CC(=O)N(Cc1ccccc1)C[C@H](O)c1ccccc1)CC1CC1 [Compound 11, N^4-benzyl-N^4-(R)-(2-hydroxy-2-phenylethyl)-N^1-[1(S)-(cyclohexylmethyl)-2(R),3(S)-dihydroxy-5-methylhexyl]-2(R)-(cyclopropylmethyl)butanediamide]",110
11,"CC(C)C[C@H](O)[C@H](O)[C@H](CC1CCCCC1)NC(=O)[C@@H](CC(=O)N[C@@H](CO)Cc1ccccc1)CC1CC1 [Compound 13, N^4-(R)-[1-(hydroxymethyl)-2-phenylethyl]-N^1-[1(S)-(cyclohexylmethyl)-2(R),3(S)-dihydroxy-5-methylhexyl]-2(R)-(cyclopropylmethyl)butanediamide]",89
12,"CC(C)C[C@H](O)[C@H](O)[C@H](CC1CCCCC1)NC(=O)[C@@H](CC(=O)N(CC1CC1)CC1(O)CCCCC1)CC1CC1 [Compound 16, N^4-(cyclopropylmethyl)-N^4-[(1-hydroxycyclohexyl)methyl]-N^1-[1(S)-(cyclohexylmethyl)-2(R),3(S)-dihydroxy-5-methylhexyl]-2(R)-(cyclopropylmethyl)butanediamide]",89

# From patent publication US5523315A, “N-(hydroxyethyl)butanediamide derivatives” (Bio-Mega/Boehringer Ingelheim Research Inc., priority 1993, dated 1996)
